Activity calls are given as the source filed them. No cut-off for these calls is given here.
Tests used:
SiHa [1] = assay: Inhibition of hypoxia-induced HIF-1alpha accumulation in human SiHa cells at 0.3 to 10 uM incubated for 24 hrs under hypoxic condition by Western blotting analysis; type: functional, cell-based; settings: dose 0.3-10 µM
SiHa [2] = assay: Inhibition of VEGFR in human SiHa cells assessed as decrease in intracellular VEGFR protein expression at 10 uM incubated for 24 hrs under hypoxic condition by immunofluorescence staining based analysis; type: cell-based
HUVEC [3] = assay: Inhibition of cell invasion in human HUVEC cells at 1 to 10 uM incubated for 48 hrs under hypoxic condition by crystal violet staining based microscopic analysis relative to PAB; type: functional; settings: dose 1-10 µM
HUVEC [4] = assay: Antiangiogenic activity against human HUVEC cells assessed as inhibition of blood vessel formation at 1 to 10 uM incubated for 4 hrs under hypoxic condition by fluorescence microscopic analysis; type: functional, cell-based; settings: dose 1-10 µM
SiHa [5] = assay: Inhibition of hypoxia-induced HIF-1beta accumulation in human SiHa cells at 0.3 to 10 uM incubated for 24 hrs under hypoxic condition by Western blotting analysis; type: functional, cell-based; settings: dose 0.3-10 µM
HUVEC [6] = assay: Inhibition of cell migration in human HUVEC cells at 1 uM incubated for 48 hrs under hypoxic condition by microscopic analysis relative to PAB; type: functional
SiHa [7] = assay: Cytotoxicity against human SiHa cells assessed as inhibition of cell growth incubated for 24 hrs under normoxic condition by MTT assay; type: functional, cell-based
[8] = Inhibition of VEGFR mediated endocytosis in human SiHa cells incubated for 24 hrs under hypoxic condition by ELISA; type: cell-based
SiHa [9] = assay: Inhibition of VEGFR in human SiHa cells incubated for 24 hrs under hypoxic condition by ELISA; type: cell-based
HUVEC [10] = assay: Inhibition of cell migration in human HUVEC cells at 3 uM incubated for 48 hrs under hypoxic condition by microscopic analysis relative to PAB; type: functional
HUVEC [11] = assay: Inhibition of cell migration in human HUVEC cells at 10 uM incubated for 48 hrs under hypoxic condition by microscopic analysis relative to PAB; type: functional
HUVEC [12] = assay: Inhibition of cell migration in human HUVEC cells at 1 to 10 uM under hypoxic condition by microscopic analysis; type: functional, cell-based; settings: dose 1-10 µM, TDE = time-dependent effect
HUVEC [13] = assay: Inhibition of cell migration in human HUVEC cells incubated upto 48 hrs under hypoxic condition by microscopic analysis; type: functional, cell-based
SiHa [14] = assay: Inhibition of hypoxia-induced HIF-1alpha accumulation in human SiHa cells assessed as decrease in nuclear HIF-1alpha level at 10 uM incubated for 24 hrs under hypoxic condition by immunofluorescence staining based analysis; type: functional, cell-based
[15] = biological target: Hypoxia-inducible factor 1-alpha (Homo sapiens) (UniProt Q16665); assay: Inhibition of HIF-1alpha in human SiHa cells assessed as downregulation of HIF-1alpha protein expression incubated upto 60 mins under hypoxic condition by Western blotting analysis; type: cell-based
Hypoxia-inducible factor 1-alpha (Homo sapiens), sequence (Q16665 whole entry, looked up): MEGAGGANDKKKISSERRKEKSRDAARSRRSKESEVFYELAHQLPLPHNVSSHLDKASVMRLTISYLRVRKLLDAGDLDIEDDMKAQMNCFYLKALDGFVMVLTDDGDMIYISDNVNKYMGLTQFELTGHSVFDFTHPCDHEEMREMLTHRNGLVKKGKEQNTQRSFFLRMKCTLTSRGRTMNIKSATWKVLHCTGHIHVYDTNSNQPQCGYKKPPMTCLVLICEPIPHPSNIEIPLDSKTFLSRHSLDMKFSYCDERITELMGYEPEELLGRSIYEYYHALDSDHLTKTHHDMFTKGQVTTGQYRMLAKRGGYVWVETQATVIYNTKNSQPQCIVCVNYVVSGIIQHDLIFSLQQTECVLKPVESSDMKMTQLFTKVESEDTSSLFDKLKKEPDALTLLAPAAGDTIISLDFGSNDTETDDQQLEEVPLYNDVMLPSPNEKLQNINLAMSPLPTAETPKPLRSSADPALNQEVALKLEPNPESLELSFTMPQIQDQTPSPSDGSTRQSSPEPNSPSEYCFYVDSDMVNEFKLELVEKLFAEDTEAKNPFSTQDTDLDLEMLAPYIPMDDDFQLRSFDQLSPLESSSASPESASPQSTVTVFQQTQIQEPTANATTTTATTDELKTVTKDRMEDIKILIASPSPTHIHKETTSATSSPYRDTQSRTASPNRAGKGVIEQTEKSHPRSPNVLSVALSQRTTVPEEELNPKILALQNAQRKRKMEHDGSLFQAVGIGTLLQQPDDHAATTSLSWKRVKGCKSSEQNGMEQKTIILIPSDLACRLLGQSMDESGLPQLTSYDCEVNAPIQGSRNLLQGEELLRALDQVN

[16] = biological target: Hypoxia-inducible factor 1-alpha (Homo sapiens) (UniProt Q16665); assay: Inhibition of HIF-1alpha in human SiHa cells assessed as downregulation of HIF-1alpha protein expression incubated upto 60 mins under hypoxic condition in presence of CHX by Western blotting analysis; type: cell-based
[17] = biological target: Hypoxia-inducible factor 1-alpha (Homo sapiens) (UniProt Q16665); assay: Inhibition of HIF-1alpha in human SiHa cells assessed as downregulation of HIF-1alpha protein expression incubated upto 60 mins under hypoxic condition in presence of MG-132 by Western blotting analysis; type: cell-based
SiHa [18] = assay: Inhibition of HIF-1beta in human SiHa cells assessed as downregulation of HIF-1beta protein expression incubated upto 60 mins under hypoxic condition in presence of MG-132 by Western blotting analysis; type: cell-based
[19] = Inhibition of PI3K/AKT/mTOR signalling pathway in human SiHa cells assessed as downregulation of PI3K protein expression at 0.3 to 10 uM incubated for 24 hrs under hypoxic condition by Western blotting analysis; type: cell-based; settings: dose 0.3-10 µM
[20] = Inhibition of PI3K/AKT/mTOR signalling pathway in human SiHa cells assessed as downregulation of AKT protein expression at 0.3 to 10 uM incubated for 24 hrs under hypoxic condition by Western blotting analysis; type: cell-based; settings: dose 0.3-10 µM
[21] = Inhibition of PI3K/AKT/mTOR signalling pathway in human SiHa cells assessed as downregulation of mTOR protein expression at 0.3 to 10 uM incubated for 24 hrs under hypoxic condition by Western blotting analysis; type: cell-based; settings: dose 0.3-10 µM
[22] = Inhibition of PI3K/AKT/mTOR signalling pathway in human SiHa cells assessed as downregulation of ERK1/2 phosphorylation at 10 uM incubated for 24 hrs under hypoxic condition by Western blotting analysis; type: cell-based
[23] = Inhibition of PI3K/AKT/mTOR signalling pathway in human SiHa cells assessed as downregulation of JNK phosphorylation at 10 uM incubated for 24 hrs under hypoxic condition by Western blotting analysis; type: cell-based
[24] = Inhibition of PI3K/AKT/mTOR signalling pathway in human SiHa cells assessed as downregulation of p38 phosphorylation at 10 uM incubated for 24 hrs under hypoxic condition by Western blotting analysis; type: cell-based
[25] = Inhibition of PI3K/AKT/mTOR signalling pathway in human SiHa cells assessed as downregulation of ERK1/2 protein expression at 10 uM incubated for 24 hrs under hypoxic condition by Western blotting analysis; type: cell-based
[26] = Inhibition of PI3K/AKT/mTOR signalling pathway in human SiHa cells assessed as downregulation of JNK protein expression at 10 uM incubated for 24 hrs under hypoxic condition by Western blotting analysis; type: cell-based
[27] = Inhibition of PI3K/AKT/mTOR signalling pathway in human SiHa cells assessed as downregulation of p38 protein expression at 10 uM incubated for 24 hrs under hypoxic condition by Western blotting analysis; type: cell-based
[28] = Toxicity in Balb/c mouse assessed as change in animal fur at 50 mg/kg,ip administration for 1 week; type: organism-based; settings: in vivo, 168 h, time 1 weeks
[29] = Toxicity in Balb/c mouse assessed as fatality at 50 mg/kg,ip administration for 1 week; type: organism-based; settings: in vivo, 168 h, time 1 weeks
[30] = Toxicity in Balb/c mouse xenografted with human SiHa cells assessed as reduction in body weight at 30 mg/kg,ip administration measured after 22 days; type: organism-based; settings: in vivo, 528 h, time 22 day
SiHa [31] = assay: Antitumor activity against human SiHa cells xenografted in Balb/c mouse assessed as reduction in tumor growth at 30 mg/kg,ip administration measured after 22 days; type: functional, organism-based; settings: time 22.0 day
SiHa [32] = assay: Antitumor activity against human SiHa cells xenografted in Balb/c mouse assessed as reduction in tumor volume at 30 mg/kg,ip administration measured after 22 days; type: functional, organism-based; settings: time 22.0 day
SiHa [33] = assay: Antitumor activity against human SiHa cells xenografted in Balb/c mouse assessed as reduction in tumor weight at 30 mg/kg,ip administration measured after 22 days; type: functional, organism-based; settings: time 22.0 day
SiHa [34] = assay: Antitumor activity against human SiHa cells xenografted in Balb/c mouse assessed as reduction in HIF-1alpha expression in tumor at 30 mg/kg,ip administration measured after 22 days by immunohistochemical staining based analysis; type: functional, organism-based; settings: time 22.0 day
SiHa [35] = assay: Antitumor activity against human SiHa cells xenografted in Balb/c mouse assessed as reduction in VEGF expression in tumor at 30 mg/kg,ip administration measured after 22 days by immunohistochemical staining based analysis; type: functional, organism-based; settings: time 22.0 day
MDA-MB-231 [36] = assay: Cytotoxicity against human MDA-MB-231 cells assessed as inhibition of cell growth incubated for 96 hrs under hypoxic condition by MTT assay; type: functional, cell-based; settings: MDA-MB-231, 96 h
MDA-MB-231 [37] = assay: Cytotoxicity against human MDA-MB-231 cells assessed as fold increase in inhibition of cell growth incubated for 96 hrs under hypoxic condition by MTT assay relative to 4-hydroxycoumarin; type: functional
MDA-MB-231 [38] = assay: Cytotoxicity against human MDA-MB-231 cells assessed as fold increase in inhibition of cell growth incubated for 96 hrs under hypoxic condition by MTT assay relative to doxorubicin; type: functional

For `COC(=O)C1=CC[C@@]23CC[C@@H]([C@@](C)(/C=C/C=C(\C)C(=O)OCC(=O)NCc4cn(-c5ccc(Cl)cc5)nn4)OC2=O)[C@@]3(OC(C)=O)CC1`, the inhibition (SiHa [1]) was “Active”, the inhibition (SiHa [2]) was “Active” and the inhibition (HUVEC [3]) was “Active”. The Activity (HUVEC [4]) was “Active”, the inhibition (SiHa [5]) was “Active” and the inhibition at 1 µM (HUVEC [6]) was 35.6%. For the same compound, the IC50 (SiHa [7]) was greater than 30 µM, the IC50 [8] was 0.68 µM and the inhibition (SiHa [9]) was “Dose-Dependent Effect”. For the same compound, the inhibition at 3 µM (HUVEC [10]) was 66.1%, the inhibition at 10 µM (HUVEC [11]) was 88.8% and the inhibition (HUVEC [12]) was “Tde”. The inhibition (HUVEC [13]) was “Dose-Dependent Effect”, the inhibition (SiHa [14]) was “Active” and the inhibition [15] was “Active”. For the same compound, the inhibition [16] was “inactive”, the inhibition [17] was “Active” and the inhibition (SiHa [18]) was “inactive”. The inhibition [19] was “Active”, the inhibition [20] was “Active” and the inhibition [21] was “Active”. For the same compound, the inhibition [22] was “Active”, the inhibition [23] was “Active” and the inhibition [24] was “Active”. For the same compound, the inhibition [25] was “inactive”, the inhibition [26] was “inactive” and the inhibition [27] was “inactive”. For the same compound, the Activity [28] was “Non-Toxic”, the Activity [29] was “Non-Toxic” and the Activity [30] was “Non-Toxic”. For the same compound, the Activity (SiHa [31]) was “Active”, the Activity (SiHa [32]) was “Active” and the Activity (SiHa [33]) was “Active”. For the same compound, the Activity (SiHa [34]) was “Active” and the Activity (SiHa [35]) was “Active”.
Compound `O=c1cc(O)c2ccccc2o1` [4-HYDROXYCOUMARINS] has an IC50 (MDA-MB-231 [36]) greater than 100 µM.
With `COc1ccc(NC(=O)c2ccc(-n3cc(COc4cc(=O)oc5ccccc45)nn3)cc2)cc1OC` the “fold change (FC)” value (MDA-MB-231 [37]) was 5000 and the “fold change (FC)” value (MDA-MB-231 [38]) was 20.

From ChEMBL document CHEMBL6071153, “Design, synthesis, and evaluation of antitumor activity in Pseudolaric acid B Azole derivatives: Novel and potent angiogenesis inhibitor via regulation of the PI3K/AKT and MAPK mediated HIF-1/VEGF signaling pathway” (Eur J Med Chem, 2024)
